The values below come from patent publication US10744125B2, “Adenosine A3 receptor modulators” (Palobiofarma, S.L., priority 2017, dated 2020).

The target in data set [1] is human A3 receptors (Homo sapiens (Human), UniProt P0DMS8). Kind of data set: A3 adenosine receptor competition radioligand binding assay. The settings on record: membranes from human A3 receptors transfected to CHO cells, [3H]-NECA. As for the experimental part:
(§1) Human membranes for recombinant adenosine receptors were purchased from Receptor Biology, Inc. (USA).
A3 Adenosine Receptor Competition Radioligand Binding Assay
Competitive assays were carried out by incubation of membranes from human A3 receptors transfected to CHO cells, [^3H]-NECA, buffer (20 mM HEPES (pH 7.4), 100 mM NaCl, 10 mM MgCl2, 2 units/ml adenosine deaminase), and unlabelled ligand in a total volume of 0.2 ml for 60 min at 25° C. R-PIA was used to determine nonspecific binding. It was filtered over Schleicher & Schuell GF/52 (presoaked with 0.5% polyethyleneimine) in a Brandel cell harvester. The unbound radioligand was removed with 3×250 μl of 20 mM HEPES (pH 7.4), 100 mM NaCl, 10 mM MgCl2.

For data set [2], the target named is human A2A receptors (Homo sapiens (Human), UniProt P29274). Kind of data set: A2A adenosine receptor competition radioligand binding assay. To be noted: membranes from human A2A receptors transfected to HeLa cells, [3H]-ZM241385. As for the experimental part:
as §1
A2A Adenosine Receptor Competition Radioligand Binding Assay
Competitive assays were carried out by incubation of membranes from human A2A receptors transfected to HeLa cells, [^3H]-ZM241385, buffer (Tris-HCl 50 mM (pH=7.4), 10 mM MgCl2, EDTA 1 mM and 2 units/ml adenosine deaminase), and unlabelled ligand in a total volume of 0.2 ml for 60 min at 25° C. NECA was used to determine nonspecific binding. It was filtered over Schleicher & Schuell GF/52 (presoaked with 0.5% polyethyleneimine) in a Brandel cell harvester. The unbound radioligand was removed with 3×250 μl of 20 mM Tris-HCl 50 mM (pH=7.4), 10 mM MgCl2, EDTA 1 mM.

The target of data set [3] is adenosine A2B receptor (Homo sapiens (Human), UniProt P29275). As to the kind of experiment: A2B adenosine receptor competition radioligand binding assay. To be noted: human recombinant source (HEK-293 cells), [3H]DPCPX. As for the experimental part: A2B Adenosine Receptor Competition Radioligand Binding Assay
Chain of adenosine A2B receptor (P29275 whole entry): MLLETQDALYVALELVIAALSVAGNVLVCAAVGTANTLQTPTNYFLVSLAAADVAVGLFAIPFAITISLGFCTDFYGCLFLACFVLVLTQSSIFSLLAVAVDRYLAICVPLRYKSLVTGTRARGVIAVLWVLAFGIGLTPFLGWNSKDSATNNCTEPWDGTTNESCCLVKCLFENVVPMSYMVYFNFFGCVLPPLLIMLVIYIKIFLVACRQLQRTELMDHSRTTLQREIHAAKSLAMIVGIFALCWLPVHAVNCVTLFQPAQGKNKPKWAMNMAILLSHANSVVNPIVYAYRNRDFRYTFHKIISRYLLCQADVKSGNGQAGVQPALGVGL
The binding assay for adenosine A2B receptor subtype was carried out on human recombinant source (HEK-293 cells) and [^3H]DPCPX as radioligand, according to assay disclosed by Fredholm et al. (International Union of Pharmacology. XXV. Nomenclature and classification of adenosine receptors, Pharmacol Rev. 2001 December; 53(4):527-52).

The target of data set [4] is hA1 receptors (Homo sapiens (Human), UniProt P30542). As to the kind of experiment: Adenosine A1 receptor subtype competition radioligand binding assay. To be noted: hA1 receptors transfected to CHO cells, [3H]DPCPX. As for the experimental part:
as §1
Adenosine A1 Receptor Subtype Competition Radioligand Binding Assay
Competition assays were carried out by incubation of human recombinant membranes of adenosine receptors (Receptor Biology, Inc.) from hA1 receptors transfected to CHO cells, [^3H] DPCPX as radioligand, buffer (HEPES 20 mM (pH=7.4), 10 mM MgCl2, 100 mM NaCl, 2 U/mL of deaminase adenosine and non-labelled ligand in a total volume of 0.2 mL for 90 min at 25° C. R-PIA was used to determinate non-specific binding. Filter over Schleicher & Schuell GF/52 (pre-soaked 0.5% polyethylenimine) in a Brandel cell harvester. Unbound radioligand was removed with HEPES 30 mM (3×250 μl), NaCl (100 mM) and MgCl2 (10 mM).

In data set [5] the test system is rheumatoid arthritis (RA) patients. The settings on record: oral administration twice daily for 12 weeks; cited from earlier work.
Data set [6] relates to experimental autoimmune uveitis. The settings on record: experimental autoimmune uveitis model; cited from earlier work.
Data set [7] addresses A3AR receptor (Homo sapiens (Human), UniProt P0DMS8). The settings on record: read-out: affinity on the A3AR receptor (IC50); cited from earlier work.

Structures are written as SMILES. A value given as a limit tells only on which side of the number the result lay.

Broadly, the Ki is the equilibrium dissociation constant of an inhibitor or competing ligand from its target. By IC50 is commonly meant the concentration needed to halve the response being measured.

Chain of human A3 receptors (P0DMS8 whole entry): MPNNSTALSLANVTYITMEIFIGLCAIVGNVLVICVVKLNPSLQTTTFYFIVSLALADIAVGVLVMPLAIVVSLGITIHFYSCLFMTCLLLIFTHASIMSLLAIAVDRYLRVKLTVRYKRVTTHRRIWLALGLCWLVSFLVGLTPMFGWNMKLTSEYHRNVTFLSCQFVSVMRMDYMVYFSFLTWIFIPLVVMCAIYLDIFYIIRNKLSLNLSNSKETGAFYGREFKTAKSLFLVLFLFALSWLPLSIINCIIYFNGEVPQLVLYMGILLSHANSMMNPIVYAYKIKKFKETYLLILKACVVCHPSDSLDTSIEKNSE
Chain of hA1 receptors (P30542 whole entry): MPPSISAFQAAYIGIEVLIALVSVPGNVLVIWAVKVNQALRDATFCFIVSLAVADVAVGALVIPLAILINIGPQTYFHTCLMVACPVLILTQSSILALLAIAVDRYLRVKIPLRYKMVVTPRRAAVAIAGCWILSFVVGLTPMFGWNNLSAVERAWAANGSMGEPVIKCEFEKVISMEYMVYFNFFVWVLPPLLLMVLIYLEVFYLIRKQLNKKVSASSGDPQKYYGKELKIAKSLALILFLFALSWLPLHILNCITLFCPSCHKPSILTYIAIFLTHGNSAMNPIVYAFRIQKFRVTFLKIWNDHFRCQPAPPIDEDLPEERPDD
Chain of human A2A receptors (P29274 whole entry): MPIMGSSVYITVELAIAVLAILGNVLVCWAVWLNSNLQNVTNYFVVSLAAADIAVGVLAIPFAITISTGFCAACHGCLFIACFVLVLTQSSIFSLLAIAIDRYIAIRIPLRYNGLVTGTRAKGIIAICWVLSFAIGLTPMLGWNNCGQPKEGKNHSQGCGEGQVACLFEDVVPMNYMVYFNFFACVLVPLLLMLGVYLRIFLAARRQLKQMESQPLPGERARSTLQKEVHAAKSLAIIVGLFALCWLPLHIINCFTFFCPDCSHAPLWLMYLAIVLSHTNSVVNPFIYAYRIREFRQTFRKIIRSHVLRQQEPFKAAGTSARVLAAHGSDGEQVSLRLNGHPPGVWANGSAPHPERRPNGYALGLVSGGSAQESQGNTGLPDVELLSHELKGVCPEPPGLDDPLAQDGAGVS
Chain of A3AR receptor (P0DMS8 whole entry): as the sequence (P0DMS8 whole entry) above

On to `N#Cc1sc(NC(=O)c2ccc(N3CCC(C(=O)O)CC3)nc2)nc1-c1ccccc1` [Example 1, 1-(5-(5-cyano-4-phenylthiazol-2-ylcarbamoyl)pyridin-2-yl) piperidine-4-carboxylic Acid], for which the inhibition constant Ki is 103 nM in data set [1], over 1000 nM in data set [2], over 500 nM in data set [3] and over 500 nM in data set [4].

Turning to `COc1cccc(-c2nc(NC(=O)c3ccc(N4CCC(C(=O)O)CC4)nc3)sc2C#N)c1` [Example 3, 1-(5-((5-cyano-4-(3-methoxyphenyl)thiazol-2-yl)carbamoyl)pyridin-2-yl) piperidine-4-carboxylic Acid], the inhibition constant (Ki) was 65.5 nM in data set [1], over 1000 nM in data set [2], over 1000 nM in data set [3] and over 1000 nM in data set [4].

With `N#Cc1sc(NC(=O)c2ccc(N3CCC(C(=O)O)CC3)nc2)nc1-c1ccccc1F` [Example 5, 1-(5-((5-cyano-4-(2-fluorophenyl)thiazol-2-yl)carbamoyl)pyridin-2-yl) piperidine-4-carboxylic Acid], the Ki is 26.3 nM in data set [1], over 1000 nM in data set [2], over 500 nM in data set [3] and over 500 nM in data set [4].

Take `N#Cc1sc(NC(=O)c2ccc(N3CCC(C(=O)O)CC3)nc2)nc1-c1cccc(F)c1` [Example 6, 1-(5-((5-cyano-4-(3-fluorophenyl)thiazol-2-yl)carbamoyl)pyridin-2-yl) piperidine-4-carboxylic Acid]: the Ki in data set [1] was 50.3 nM; in data set [2], over 1000 nM; in data set [3] it was over 1000 nM; in data set [4], over 1000 nM.

With `N#Cc1sc(NC(=O)c2ccc(N3CCC(C(=O)O)CC3)nc2)nc1-c1cccs1` [Example 14, 1-(5-(5-cyano-4-(thiophen-2-yl)thiazol-2-ylcarbamoyl)pyridin-2-yl) piperidine-4-carboxylic Acid], the inhibitory constant (Ki) was 29.2 nM in data set [1], over 500 nM in data set [2], over 1000 nM in data set [3] and over 500 nM in data set [4].

For `CNC(=O)[C@H]1O[C@@H](n2cnc3c(NCc4cccc(I)c4)ncnc32)[C@H](O)[C@@H]1O` [IB-MECA, 1-deoxy-1-[6-[((3-iodophenyl)methyl)amino]-9H-purin-9-yl]-N-methyl-β-D-ribofuranuronamide], in data set [5], the “effect on disease signs and symptoms” value was “able to mediate an improvement of disease signs and symptoms”; the safety and tolerability entry is listed as “safe, well tolerated”. Besides, the “effect on manifestations of uveitis” value in data set [6] was “inhibited the clinical and pathological manifestations of uveitis”.

For the compound `COc1cc(Nc2ncc(F)c(Nc3ccc4c(n3)N(COP(=O)(O)O)C(=O)C(C)(C)O4)n2)cc(OC)c1OC` [fostamatinib], in data set [7], the 50% inhibitory concentration (IC50) was 81 nM.
